Measurements reported in US10080757B2 (WISCONSIN ALUMNI RESEARCH FOUNDATION, priority 2016, dated 2018).
In brackets after ≈: the same amount, converted by molar mass. Read-outs that look alike come from different tables or passages of the source.

What was measured:
recombinant MtbUGM = biological target: T1, recombinant MtbUGM (Mycobacterium tuberculosis, UniProt P9WIQ1); assay: biochemical; settings: for inhibition at 100 µM: read-out: % inhib MtbUGM (100 μM); for inhibition at 10 µM: read-out: % inhib MtbUGM (10 μM)
T1 construct: made in house
T1 sequence (P9WIQ1 whole entry): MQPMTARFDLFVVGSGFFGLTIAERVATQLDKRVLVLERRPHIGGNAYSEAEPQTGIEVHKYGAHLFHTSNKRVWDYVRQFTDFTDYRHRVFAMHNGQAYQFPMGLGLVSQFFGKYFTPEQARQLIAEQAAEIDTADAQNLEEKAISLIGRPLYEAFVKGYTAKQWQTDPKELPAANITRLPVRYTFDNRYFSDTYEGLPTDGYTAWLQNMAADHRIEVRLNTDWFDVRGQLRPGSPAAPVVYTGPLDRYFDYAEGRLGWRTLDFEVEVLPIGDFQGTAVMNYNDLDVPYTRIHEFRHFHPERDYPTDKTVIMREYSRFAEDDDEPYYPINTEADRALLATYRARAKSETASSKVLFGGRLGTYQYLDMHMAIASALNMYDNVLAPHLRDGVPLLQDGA

C. elegans = C. elegans growth and proliferation; type: in vivo; settings: 250 μM
CeUGM = CeUGM inhibition; type: biochemical, C. elegans
M. smegmatis [1] = assay: Microplate Alamar Blue Assay (MIC, liquid culture); type: cell-based; settings: Mycolicibacterium smegmatis
Description: The culture was diluted to OD600=˜0.02 in LB liquid media and added to 96-well plates at a final volume of 100 μL, with added inhibitor concentrations in two-fold dilutions. Perimeter wells were filled with sterile water. After 24 hours at 37° C. in a shaking incubator, 10 μL of the Alamar Blue reagent was added to each well. The plate was incubated for an additional 4 hours at 37° C., at which point fluorescence emission at 585 nm was measured using a plate reader. The lowest inhibitor concentration at which 99% or greater growth inhibition was observed was determined to be the MIC.

M. smegmatis [2] = assay: Agar disk diffusion assay; design: zone of inhibition: dose or concentration left out as unconfirmed; settings: for Mycobacterial growth inhibition (in words): disk diffusion, solid media
Description: M. smegmatis was grown to saturation over 48 hours at 37° C. in Middlebrook 7H9 media with Albumin Dextrose Catalase (ADC) enrichment and 0.05% Tween80. The culture was diluted to OD600=˜0.2 in LB liquid media and 100 μL of dilute culture was spread onto LB agar plates, then allowed to soak into the agar for 1 hour at room temperature. Sterile disks (3 mm diameter) were impregnated with a solution of inhibitor in DMSO (1.5 μL) and placed on top of the bacterial lawn. […] The plates were incubated for 72 hours at 37° C., at which point a lawn of bacteria was visible. Zones of inhibition were measured as the average diameter of the region around a cloning disk where bacterial growth was not visible. For each disk, three diameter measurements were taken and averaged.

[3] = 50 μM, mean of two replicates, read-out: % inhib MtbUGM (50 μM)
[4] = read-out: % inhib MtbUGM (50 μM)

## O=C(O)CC1Sc2nnc(-c3cccs3)n2N=C1c1ccc(Cl)cc1 (centres unmarked) [Compound 15, 2-(6-(4-chlorophenyl)-3-(thiophen-2-yl)-7H-[1,2,4]triazolo[3,4-b][1,3,4]thiadiazin-7-yl)acetic acid]
Recombinant MtbUGM; 100 μM, mean of two replicates
  inhibition at 100 µM: 50%

## Cc1ccc(C2=Nn3c(Cc4ccc(Br)cc4)nnc3SC2CC(=O)O)cc1 (centres unmarked) [Compound 21, 2-(3-(4-bromobenzyl)-6-(p-tolyl)-7H-[1,2,4]triazolo[3,4-b][1,3,4]thiadiazin-7-yl)acetic acid]
Recombinant MtbUGM; [3]
  inhibition at 50 µM: 32%
Recombinant MtbUGM; 100 μM, mean of two replicates
  inhibition at 100 µM: 63%

## O=C(O)CC1Sc2nnc(-c3ccc(Br)cc3)n2N=C1c1ccc(Cl)cc1 (centres unmarked) [Compound 26, 2-(3-(4-bromophenyl)-6-(4-chlorophenyl)-7H-[1,2,4]triazolo[3,4-b][1,3,4]thiadiazin-7-yl)acetic acid]
Recombinant MtbUGM; [3]
  inhibition at 50 µM: 23%
Recombinant MtbUGM; 100 μM, mean of two replicates
  inhibition at 100 µM: 41%

## O=C(O)CC1Sc2nnc(Cc3ccc(Br)cc3)n2N=C1c1ccc(Cl)cc1 (centres unmarked) [Compound 11, 2-(3-(4-bromobenzyl)-6-(4-chlorophenyl)-7H-[1,2,4]triazolo[3,4-b][1,3,4]thiadiazin-7-yl)acetic acid]
C. elegans; Table 8
  Effective inhibitor of C. elegans growth at 250 μM: No
CeUGM
  CeUGM % Inhibition at 10 μM: 53.5 ± 3.0%
Recombinant MtbUGM; [3]
  inhibition at 50 µM: 36%
Recombinant MtbUGM; 100 μM, mean of two replicates
  inhibition at 100 µM: 72%
Recombinant MtbUGM; Table 4
  IC50: 80 ± 29 µM
M. smegmatis [1]; Table 4
  MIC: 500 µM (≈ 239 µg/mL)

## O=C(O)CC1Sc2nnc(Cc3ccc(Br)cc3)n2N=C1c1ccc(Br)cc1 (centres unmarked) [Compound 19, 2-(3-(4-bromobenzyl)-6-(4-bromophenyl)-7H-[1,2,4]triazolo[3,4-b][1,3,4]thiadiazin-7-yl)acetic acid]
Recombinant MtbUGM; [3]
  inhibition at 50 µM: 67%
Recombinant MtbUGM; 100 μM, mean of two replicates
  inhibition at 100 µM: 90%

## O=C(O)CC1Sc2nnc(Cc3ccc(Br)cc3)n2N=C1c1ccc(C(F)(F)F)cc1 (centres unmarked) [Compound 20, 2-(3-(4-bromobenzyl)-6-(4-(trifluoromethyl)phenyl)-7H-[1,2,4]triazolo[3,4-b][1,3,4]thiadiazin-7-yl)acetic acid]
Recombinant MtbUGM; [3]
  inhibition at 50 µM: 11%
Recombinant MtbUGM; 100 μM, mean of two replicates
  inhibition at 100 µM: 57%

## CS(=O)(=O)NC(=O)CC1Sc2nnc(Cc3ccc(Br)cc3)n2N=C1c1ccc(Cl)cc1 (centres unmarked) [Compound 12, 2-(3-(4-bromobenzyl)-6-(4-chlorophenyl)-7H-[1,2,4]triazolo[3,4-b][1,3,4]thiadiazin-7-yl)-N-(methylsulfonyl)acetamide]
C. elegans; Table 8
  Effective inhibitor of C. elegans growth at 250 μM: No
CeUGM
  CeUGM % Inhibition at 10 μM: 68.1 ± 2.1%
Recombinant MtbUGM; [3]
  inhibition at 50 µM: 50%
Recombinant MtbUGM; 100 μM, mean of two replicates
  inhibition at 100 µM: 58%
Recombinant MtbUGM; Table 4
  IC50: 108 ± 42 µM
M. smegmatis [1]; Table 4
  MIC: 500 µM (≈ 277 µg/mL)

## COC(=O)CC1Sc2nnc(Cc3ccc(Br)cc3)n2N=C1c1ccc(Cl)cc1 (centres unmarked) [Compound 14, Methyl-2-(3-(4-bromobenzyl)-6-(4-chlorophenyl)-7H-[1,2,4]triazolo[3,4-b][1,3,4]thiadiazin-7-yl)acetate]
C. elegans; Table 8
  Effective inhibitor of C. elegans growth at 250 μM: No
Recombinant MtbUGM; 100 μM, mean of two replicates
  inhibition at 100 µM: 0%

## O=C(O)CC1Sc2nnc(Cc3ccc4ccccc4c3)n2N=C1c1ccc(Cl)cc1 (centres unmarked) [Compound 30, 2-(6-(4-chlorophenyl)-3-(naphthalen-2-ylmethyl)-7H-[1,2,4]triazolo[3,4-b][1,3,4]thiadiazin-7-yl)acetic acid]
Recombinant MtbUGM; [3]
  inhibition at 50 µM: 49%
Recombinant MtbUGM; 100 μM, mean of two replicates
  inhibition at 100 µM: 88%

## O=C(O)CC1Sc2nnc(CCc3ccc(Br)cc3)n2N=C1c1ccc(Cl)cc1 (centres unmarked) [Compound 27, 2-(3-(4-bromophenethyl)-6-(4-chlorophenyl)-7H-[1,2,4]triazolo[3,4-b][1,3,4]thiadiazin-7-yl)acetic acid]
Recombinant MtbUGM; [3]
  inhibition at 50 µM: 48%
Recombinant MtbUGM; 100 μM, mean of two replicates
  inhibition at 100 µM: 69%

## O=C(O)CC1Sc2nnc(Cc3ccccc3)n2N=C1c1ccc(Cl)cc1 (centres unmarked) [Compound 28, 2-(3-benzyl-6-(4-chlorophenyl)-7H-[1,2,4]triazolo[3,4-b][1,3,4]thiadiazin-7-yl)acetic acid]
Recombinant MtbUGM; [3]
  inhibition at 50 µM: 30%
Recombinant MtbUGM; 100 μM, mean of two replicates
  inhibition at 100 µM: 43%

## O=C(CC1Sc2nnc(Cc3ccc(Br)cc3)n2N=C1c1ccc(Cl)cc1)NS(=O)(=O)c1cccs1 (centres unmarked) [Compound 36]
Recombinant MtbUGM
  inhibition at 10 µM: 18%
  inhibition at 100 µM: 100%
Recombinant MtbUGM; [4]
  inhibition at 50 µM: 87%

## Cc1ccc(S(=O)(=O)NC(=O)C(Cc2ccc(I)cc2)Nc2nc(-c3ccc(Cl)c(Cl)c3)cs2)cc1 (centres unmarked) [Compound 7, 2-((4-(3,4-dichlorophenyl)thiazol-2-yl)amino)-3-(4-iodophenyl)-N-tosylpropanamide]
M. smegmatis [2]; Mycolicibacterium smegmatis, read-out: Inhibition zone
  zone of inhibition: 6 ± 0.6 mm
M. smegmatis [2]
  Mycobacterial growth inhibition (in words): inactivity
C. elegans; Table 7
  Effective inhibitor of C. elegans growth at 250 μM: No
CeUGM; 2.5 μM
  CeUGM % Inhibition at 2.5 μM: 90.5 ± 0.2%
Recombinant MtbUGM; Table 2, standard deviation, n = 3
  IC50: 1 ± 1 µM
M. smegmatis [1]; Table 3, liquid media, at least 99% growth inhibition
  MIC: 12.5 µM (≈ 8.4 µg/mL)

## O=C(O)CC1Sc2nnc(-c3cccs3)n2N=C1c1ccc(Cl)c(Cl)c1 (centres unmarked) [Compound 18, 2-(6-(3,4-dichlorophenyl)-3-(thiophen-2-yl)-7H-[1,2,4]triazolo[3,4-b][1,3,4]thiadiazin-7-yl)acetic acid]
Recombinant MtbUGM; 100 μM, mean of two replicates
  inhibition at 100 µM: 80%

## O=C(CC1Sc2nnc(Cc3ccc(Br)cc3)n2N=C1c1ccc(Cl)cc1)NS(=O)(=O)c1ccc(Cl)s1 (centres unmarked) [Compound 37]
Recombinant MtbUGM
  inhibition at 10 µM: 35%
  inhibition at 100 µM: 100%
Recombinant MtbUGM; [4]
  inhibition at 50 µM: 100%

## COC(=O)C(Cc1ccc(I)cc1)Nc1nc(-c2ccc(Cl)c(Cl)c2)cs1 (centres unmarked) [Compound 10, Methyl 2-((4-(3,4-dichlorophenyl)thiazol-2-yl)amino)-3-(4-iodophenyl)propanoate]
M. smegmatis [2]
  Mycobacterial growth inhibition (in words): no mycobacterial growth inhibition was observed
C. elegans; Table 7
  Effective inhibitor of C. elegans growth at 250 μM: No
Recombinant MtbUGM; 50 μM compound (FIG. 1), read-out: Inhibition of MtbUGM activity
  inhibition at 50 µM: 30%

## COC(=O)CC1Sc2nnc(-c3cccs3)n2N=C1c1ccc(Cl)cc1 (centres unmarked) [Compound 32, Methyl-2-(6-(4-chlorophenyl)-3-(thiophen-2-yl)-7H-[1,2,4]triazolo[3,4-b][1,3,4]thiadiazin-7-yl)acetate]
Recombinant MtbUGM; 100 μM, mean of two replicates
  inhibition at 100 µM: 20%

## O=C(CC1Sc2nnc(Cc3ccc(Br)cc3)n2N=C1c1ccc(Cl)c(Cl)c1)NS(=O)(=O)c1ccccc1 (centres unmarked) [Compound 39]
Recombinant MtbUGM
  inhibition at 10 µM: 51%
  inhibition at 100 µM: 100%
Recombinant MtbUGM; [4]
  inhibition at 50 µM: 100%

## Cc1ccc(C2=Nn3c(Cc4ccc(Br)cc4)nnc3SC2CC(=O)O)c(C)c1 (centres unmarked) [Compound 24, 2-(3-(4-bromobenzyl)-6-(2,4-dimethylphenyl)-7H-[1,2,4]triazolo[3,4-b][1,3,4]thiadiazin-7-yl)acetic acid]
Recombinant MtbUGM; [3]
  inhibition at 50 µM: 1%
Recombinant MtbUGM; 100 μM, mean of two replicates
  inhibition at 100 µM: 0%

## C=CCNC(=O)CC1Sc2nnc(-c3cccs3)n2N=C1c1ccc(Cl)cc1 (centres unmarked) [Compound 34, N-allyl-2-(6-(4-chlorophenyl)-3-(thiophen-2-yl)-7H-[1,2,4]triazolo[3,4-b][1,3,4]thiadiazin-7-yl)acetamide]
Recombinant MtbUGM; 100 μM, mean of two replicates
  inhibition at 100 µM: 0%

## O=C(O)CC1Sc2nnc(Cc3ccc(-c4ccccc4)cc3)n2N=C1c1ccc(Cl)cc1 (centres unmarked) [Compound 29, 2-(3-([1,1′-biphenyl]-4-ylmethyl)-6-(4-chlorophenyl)-7H-[1,2,4]triazolo[3,4-b][1,3,4]thiadiazin-7-yl)acetic acid]
Recombinant MtbUGM; [3]
  inhibition at 50 µM: 100%
Recombinant MtbUGM; 100 μM, mean of two replicates
  inhibition at 100 µM: 100%

## C=CCNC(=O)CC1Sc2nnc(Cc3ccc(Br)cc3)n2N=C1c1ccc(Cl)cc1 (centres unmarked) [Compound 35, N-allyl-2-(3-(4-bromobenzyl)-6-(4-chlorophenyl)-7H-[1,2,4]triazolo[3,4-b][1,3,4]thiadiazin-7-yl)acetamide]
Recombinant MtbUGM; 100 μM, mean of two replicates
  inhibition at 100 µM: 0%

## Cc1ccc(C2=Nn3c(Cc4ccc(Br)cc4)nnc3SC2CC(=O)O)cc1C (centres unmarked) [Compound 17, 2-(3-(4-bromobenzyl)-6-(3,4-dimethylphenyl)-7H-[1,2,4]triazolo[3,4-b][1,3,4]thiadiazin-7-yl)acetic acid]
Recombinant MtbUGM; [3]
  inhibition at 50 µM: 41%
Recombinant MtbUGM; 100 μM, mean of two replicates
  inhibition at 100 µM: 80%

## O=C(O)CC1Sc2nnc(Cc3ccc(Br)cc3)n2N=C1c1ccc(Cl)c(Cl)c1 (centres unmarked) [Compound 16, 2-(3-(4-bromobenzyl)-6-(3,4-dichlorophenyl)-7H-[1,2,4]triazolo[3,4-b][1,3,4]thiadiazin-7-yl)acetic acid]
Recombinant MtbUGM; [3]
  inhibition at 50 µM: 78%
Recombinant MtbUGM; 100 μM, mean of two replicates
  inhibition at 100 µM: 95%

## Cn1cnc(S(=O)(=O)NC(=O)CC2Sc3nnc(Cc4ccc(Br)cc4)n3N=C2c2ccc(Cl)cc2)c1 (centres unmarked) [Compound 38]
Recombinant MtbUGM; [4]
  inhibition at 50 µM: 36%
Recombinant MtbUGM
  inhibition at 100 µM: 68%

## O=C(O)CC1Sc2nnc(Cc3ccc(-c4ccccc4)cc3)n2N=C1c1ccc(Cl)c(Cl)c1 (centres unmarked) [Compound 31, 2-(3-([1,1′-biphenyl]-4-ylmethyl)-6-(3,4-dichlorophenyl)-7H-[1,2,4]triazolo[3,4-b][1,3,4]thiadiazin-7-yl)acetic acid]
Recombinant MtbUGM; 10 μM, mean of two replicates
  inhibition at 10 µM: 50%
Recombinant MtbUGM; [3]
  inhibition at 50 µM: 100%
Recombinant MtbUGM; 100 μM, mean of two replicates
  inhibition at 100 µM: 100%

## O=C(CC1Sc2nnc(Cc3ccc(-c4ccccc4)cc3)n2N=C1c1ccc(Cl)c(Cl)c1)NS(=O)(=O)c1ccccc1 (centres unmarked) [Compound 40]
Recombinant MtbUGM
  inhibition at 10 µM: 85%
  inhibition at 100 µM: 100%
Recombinant MtbUGM; [4]
  inhibition at 50 µM: 100%

## O=C(O)CC1Sc2nnc(Cc3ccc(Br)cc3)n2N=C1c1ccc(F)cc1 (centres unmarked) [Compound 23, 2-(3-(4-bromobenzyl)-6-(4-fluorophenyl)-7H-[1,2,4]triazolo[3,4-b][1,3,4]thiadiazin-7-yl)acetic acid]
Recombinant MtbUGM; [3]
  inhibition at 50 µM: 25%
Recombinant MtbUGM; 100 μM, mean of two replicates
  inhibition at 100 µM: 39%

## COc1ccc(C2=Nn3c(Cc4ccc(Br)cc4)nnc3SC2CC(=O)O)cc1 (centres unmarked) [Compound 22, 2-(3-(4-bromobenzyl)-6-(4-methoxyphenyl)-7H-[1,2,4]triazolo[3,4-b][1,3,4]thiadiazin-7-yl)acetic acid]
Recombinant MtbUGM; [3]
  inhibition at 50 µM: 35%
Recombinant MtbUGM; 100 μM, mean of two replicates
  inhibition at 100 µM: 44%
